Experimental data from the supplement of paper PMC10307832.

compound: C=CCn1c(=O)c2cnc(Nc3ccc(N4CCN(C)CC4)cc3)nc2n1-c1cccc(C(C)(C)O)n1 [Adavosertib] + Nc1ncn([C@H]2C[C@H](O)[C@@H](CO)O2)c(=O)n1 [Decitabine] (partner 2 µM); assay: relative viability (nuclei count vs DMSO), 5 days (fraction); higher = more cells survive; details: first compound 0.01 µM
Outline: (§1)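 Nuclei were stained with Hoechst during a one-step fixation (final 0.05% Triton X-100, 1% formaldehyde, 1 ug/ml Hoechst) carried out 5 days after dosing, then counted on 4× images. The cells, lung cancer lines in 1536-well plates, had been dosed by pin tool the day after seeding with one drug alone or a fixed anchor-drug dose plus five library-drug doses (not always all listed) in √10 steps. Relative viability is the nuclei count in treated wells divided by that in vehicle wells, and each value is the median of duplicate plates.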

Cell Line | relative viability
NCI-H1793 | 0.37
NCI-H1944 | 0.415
NCI-H2170 | 0.426
NCI-H2342 | 0.72
SK-MES-1 | 0.368
SW 900 | 0.442

same assay, conditions: first compound 0.03162 µM

Cell Line | relative viability
201T | 0.877
A549 | 0.257
A-427 | 0.554
ABC-1 | 1.04
BEN | 0.69
COR-L23 | 0.523
COR-L 105 | 0.6
ChaGo-K-1 | 0.518
EKVX | 0.388
EPLC-272H | 0.344
H3255 | 0.694
HARA | 0.554
HCC-15 | 0.719
HCC-44 | 0.935
HCC-78 | 0.679
HCC-366 | 0.35
HCC-827 | 0.344
HOP-62 | 0.239
LC-2-ad | 0.733

Cell Line | relative viability
LCLC-97TM1 | 0.264
LCLC-103H | 0.722
LK-2 | 0.346
LOU-NH91 | 0.821
LU99A | 0.912
LXF-289 | 0.411
NCI-H23 | 0.31
NCI-H322M | 0.67
NCI-H358 | 0.201
NCI-H441 | 0.266
NCI-H522 | 0.692
NCI-H1395 | 0.754
NCI-H1648 | 0.527
NCI-H1793 | 0.477
NCI-H1944 | 0.439
NCI-H2170 | 0.452
NCI-H2342 | 0.768
SK-MES-1 | 0.385
SW 900 | 0.464

same assay, conditions: first compound 0.1 µM

Cell Line | relative viability
201T | 0.898
A549 | 0.298
A-427 | 0.55
ABC-1 | 1.17
BEN | 0.768
COR-L23 | 0.45
COR-L 105 | 0.618
ChaGo-K-1 | 0.469
EKVX | 0.383
EPLC-272H | 0.448
H3255 | 0.609
HARA | 0.473
HCC-15 | 0.667
HCC-44 | 0.975
HCC-78 | 0.731
HCC-366 | 0.377
HCC-827 | 0.341
HOP-62 | 0.229
LC-2-ad | 0.87

Cell Line | relative viability
LCLC-97TM1 | 0.246
LCLC-103H | 0.73
LK-2 | 0.349
LOU-NH91 | 0.798
LU99A | 0.846
LXF-289 | 0.399
NCI-H23 | 0.255
NCI-H322M | 0.698
NCI-H358 | 0.188
NCI-H441 | 0.264
NCI-H522 | 0.776
NCI-H1395 | 0.781
NCI-H1648 | 0.448
NCI-H1793 | 0.521
NCI-H1944 | 0.448
NCI-H2170 | 0.5
NCI-H2342 | 0.755
SK-MES-1 | 0.364
SW 900 | 0.461

same assay, conditions: first compound 0.3162 µM

Cell Line | relative viability
201T | 0.971
A549 | 0.291
A-427 | 0.469
ABC-1 | 0.959
BEN | 0.783
COR-L23 | 0.277
COR-L 105 | 0.651
ChaGo-K-1 | 0.534
EKVX | 0.4
EPLC-272H | 0.308
H3255 | 0.674
HARA | 0.423
HCC-15 | 0.858
HCC-44 | 1
HCC-78 | 0.618
HCC-366 | 0.277
HCC-827 | 0.214
HOP-62 | 0.223
LC-2-ad | 0.889

Cell Line | relative viability
LCLC-97TM1 | 0.221
LCLC-103H | 0.721
LK-2 | 0.412
LOU-NH91 | 0.852
LU99A | 0.69
LXF-289 | 0.358
NCI-H23 | 0.246
NCI-H322M | 0.526
NCI-H358 | 0.193
NCI-H441 | 0.289
NCI-H522 | 0.745
NCI-H1395 | 0.62
NCI-H1648 | 0.422
NCI-H1793 | 0.358
NCI-H1944 | 0.369
NCI-H2170 | 0.429
NCI-H2342 | 0.932
SK-MES-1 | 0.227
SW 900 | 0.312

compound: COc1nc(N)nc2c1ncn2[C@@H]1O[C@H](CO)[C@@H](O)[C@@H]1O [Nelarabine] + C[C@@H](Oc1cc(-c2cnn(C3CCNCC3)c2)cnc1N)c1c(Cl)ccc(F)c1Cl [Crizotinib] (partner 1 µM); assay: as above; details: first compound 0.01 µM
Outline: as §1

Cell Line | relative viability
201T | 1.04
A549 | 0.735
A-427 | 1.02
ABC-1 | 1.07
BEN | 1.37
CAL-12T | 0.517
COR-L23 | 0.692
COR-L 105 | 0.998
Calu-6 | 0.848
ChaGo-K-1 | 1.11
EBC-1 | 0.157
EKVX | 1.16
EPLC-272H | 1.01
H3255 | 1.04
HARA | 1.21
HCC-15 | 1.01
HCC-44 | 0.989
HCC-78 | 0.379
HCC-366 | 0.594
HCC-827 | 0.902

Cell Line | relative viability
HOP-62 | 1.08
IA-LM | 1.08
LC-2-ad | 0.497
LCLC-97TM1 | 0.481
LCLC-103H | 1.12
LK-2 | 0.222
LOU-NH91 | 0.755
LU99A | 0.557
LXF-289 | 0.893
NCI-H23 | 0.505
NCI-H322M | 0.884
NCI-H358 | 0.58
NCI-H441 | 0.715
NCI-H1299 | 1.04
NCI-H1563 | 0.815
NCI-H1703 | 0.577
NCI-H1944 | 1.12
NCI-H2170 | 1.47
NCI-H2228 | 0.414
SK-MES-1 | 1.07

same assay, conditions: first compound 0.03162 µM

Cell Line | relative viability
201T | 0.968
A549 | 0.666
A-427 | 0.636
ABC-1 | 1.09
BEN | 0.869
CAL-12T | 0.514
COR-L23 | 0.706
COR-L 105 | 0.752
Calu-6 | 0.613
ChaGo-K-1 | 1.01
EBC-1 | 0.178
EKVX | 0.83
EPLC-272H | 0.928
H3255 | 0.821
HARA | 1.09
HCC-15 | 0.782
HCC-44 | 0.782
HCC-78 | 0.365
HCC-366 | 0.222
HCC-827 | 0.811

Cell Line | relative viability
HOP-62 | 0.933
IA-LM | 0.674
LC-2-ad | 0.404
LCLC-97TM1 | 0.364
LCLC-103H | 1.03
LOU-NH91 | 1
LU99A | 0.534
LXF-289 | 0.779
NCI-H23 | 0.485
NCI-H322M | 0.88
NCI-H358 | 0.481
NCI-H441 | 0.856
NCI-H1299 | 1.03
NCI-H1563 | 0.93
NCI-H1703 | 0.701
NCI-H1944 | 1.06
NCI-H2170 | 1.01
NCI-H2228 | 0.371
SK-MES-1 | 0.922

same assay, conditions: first compound 0.1 µM

Cell Line | relative viability
201T | 0.84
A549 | 0.742
A-427 | 0.872
ABC-1 | 0.994
BEN | 0.896
CAL-12T | 0.61
COR-L23 | 0.574
COR-L 105 | 0.678
Calu-6 | 0.879
ChaGo-K-1 | 1.32
EBC-1 | 0.182
EKVX | 0.894
EPLC-272H | 1
H3255 | 0.906
HARA | 0.909
HCC-15 | 0.86
HCC-44 | 0.783
HCC-366 | 0.51
HCC-827 | 0.748

Cell Line | relative viability
HOP-62 | 0.998
IA-LM | 0.844
LC-2-ad | 0.444
LCLC-97TM1 | 0.199
LCLC-103H | 1.07
LK-2 | 0.223
LOU-NH91 | 0.73
LU99A | 0.582
LXF-289 | 0.804
NCI-H23 | 0.297
NCI-H322M | 0.853
NCI-H358 | 0.4
NCI-H441 | 0.723
NCI-H1299 | 0.963
NCI-H1563 | 0.797
NCI-H1703 | 0.78
NCI-H1944 | 1.16
NCI-H2170 | 1.24
SK-MES-1 | 0.961

same assay, conditions: first compound 0.3162 µM

Cell Line | relative viability
201T | 1.06
A549 | 0.803
A-427 | 0.957
ABC-1 | 1.14
BEN | 0.88
CAL-12T | 0.806
COR-L23 | 0.617
COR-L 105 | 0.894
Calu-6 | 0.825
ChaGo-K-1 | 1.23
EBC-1 | 0.235
EKVX | 1.41
EPLC-272H | 0.946
H3255 | 0.881
HARA | 1.24
HCC-15 | 0.97
HCC-44 | 0.819
HCC-78 | 0.34
HCC-366 | 1.01
HCC-827 | 0.682

Cell Line | relative viability
HOP-62 | 0.91
IA-LM | 0.876
LC-2-ad | 0.421
LCLC-97TM1 | 0.401
LCLC-103H | 1.08
LK-2 | 0.205
LOU-NH91 | 0.739
LU99A | 0.627
LXF-289 | 0.896
NCI-H23 | 0.495
NCI-H322M | 0.948
NCI-H358 | 0.573
NCI-H441 | 0.836
NCI-H1299 | 0.979
NCI-H1563 | 0.845
NCI-H1703 | 1.01
NCI-H1944 | 1.08
NCI-H2170 | 1.35
NCI-H2228 | 0.351
SK-MES-1 | 1.05

same assay, conditions: first compound 1 µM

Cell Line | relative viability
201T | 1.02
A549 | 0.671
A-427 | 0.893
ABC-1 | 0.976
BEN | 0.929
CAL-12T | 0.549
COR-L23 | 0.628
COR-L 105 | 0.844
Calu-6 | 0.826
ChaGo-K-1 | 1.17
EBC-1 | 0.194
EKVX | 0.979
EPLC-272H | 0.861
H3255 | 0.913
HARA | 1.12
HCC-15 | 0.887
HCC-44 | 0.739
HCC-78 | 0.338
HCC-366 | 0.618
HCC-827 | 0.607

Cell Line | relative viability
HOP-62 | 0.831
IA-LM | 0.791
LC-2-ad | 0.447
LCLC-97TM1 | 0.383
LCLC-103H | 1.02
LK-2 | 0.206
LOU-NH91 | 0.733
LU99A | 0.622
LXF-289 | 0.781
NCI-H23 | 0.515
NCI-H322M | 0.837
NCI-H358 | 0.514
NCI-H441 | 0.716
NCI-H1299 | 0.966
NCI-H1563 | 0.841
NCI-H1703 | 0.594
NCI-H1944 | 1.02
NCI-H2170 | 1.26
NCI-H2228 | 0.436
SK-MES-1 | 1.1
